Entries after “also recorded” stand apart in the source; their conditions may differ.

A short description of data set [1]: Thermal stability evaluation of crude product at 180° C. (GC, hexadecane internal standard). In kind it is physicochemical. Particulars: crude product before distillation, stirring at 180° C. in a stream of nitrogen, after 3 hours, GC area ratio vs hexadecane. As to the method: The crude product of N-isobutyl-2,6,8-decatrienamide obtained in Example 2 before the distillation and the crude product obtained in Comparative Example 1 were compared as follows in terms of thermal stability at 180° C. assuming distillation at high temperature.
In a stream of nitrogen, 1 g of each of the crude products was put into a flask together with 0.1 g of hexadecane as an internal standard substance, followed by stirring at 180° C. for […]. By gas chromatography, the area ratio of N-isobutyl-2,6,8-decatrienamide was compared with the area ratio of the internal standard substance to measure the remaining percentage of N-isobutyl-2,6,8-decatrienamide.

Data set [2] can be described thus: Sensory evaluation of aqueous solutions containing 10 ppm of N-isobutyl-2,6,8-decatrienamide. In kind it is in vivo. Particulars: aqueous solution containing 10 ppm. The method, then:
The sensory evaluation was performed using aqueous solutions respectively containing 10 ppm of N-isobutyl-2,6,8-decatrienamide obtained in Example 2 and Comparative Example 1.

As for `CC=CC=CCCC=CC(=O)NCC(C)C` [Comparative Example 1, N-isobutyl-2,6,8-decatrienamide, reference compound], the “remaining percentage of N-isobutyl-2,6,8-decatrienamide” value in data set [1] was 89%. With `CC=CC=CCC/C=C/C(=O)NCC(C)C` (racemic) [Example 2, N-isobutyl-2,6,8-decatrienamide], the “remaining percentage of N-isobutyl-2,6,8-decatrienamide” value in data set [1] was 98%. Moreover, the “Sensory evaluation (numbing and astringent actions)” value in data set [2] is “excellent numbing and astringent actions; also recorded: clear and strong”.

For the origin of these results see patent publication US9029593B2, “Method for manufacturing spilanthol and intermediate manufacturing product therefor” (Takasago International Corporation, priority 2009, dated 2015).
